The results in this text go back to article PMC9445081, “Structural basis for recognition of N-formyl peptides as pathogen-associated molecular patterns” (Nature Communications, 2022).

Assay [1] has as its target T1, FPR1 R201A (Homo sapiens, UniProt P21462, R201A).
T1 construct: expressed in transfected cells; host or cells: HeLa cells, transient, pcDNA3.1(+)
T1 sequence (P21462 1-350 R201A): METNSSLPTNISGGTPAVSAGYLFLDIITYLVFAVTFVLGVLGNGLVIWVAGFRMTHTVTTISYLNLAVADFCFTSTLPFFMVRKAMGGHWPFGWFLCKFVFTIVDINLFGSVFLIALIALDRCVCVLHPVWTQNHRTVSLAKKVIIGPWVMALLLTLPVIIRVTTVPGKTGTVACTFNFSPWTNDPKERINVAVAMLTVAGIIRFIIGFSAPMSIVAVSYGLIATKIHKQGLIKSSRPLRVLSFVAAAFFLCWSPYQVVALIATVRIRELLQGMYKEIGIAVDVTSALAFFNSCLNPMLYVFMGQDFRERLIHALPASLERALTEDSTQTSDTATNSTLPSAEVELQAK
The assay can be described thus: cAMP inhibition assay, FPR1 R201A. The class given is cell-based. The text has this:
(§1) FPR1 cDNA in the pcDNA3.1(+) vector (Invitrogen) was used as a template for gene manipulation. The mutations of FPR1 were introduced in the receptor through overlap extension PCR with elaborately designed primers (GENEWIZ, Suzhou, China). The sequences of the primers were listed in Supplementary Table 2. Two fragments of FPR1 (separated at mutated positions) were assembled into pre-cut pcDNA3.1(+) vectors with the ClonExpress Ultra One Step Cloning Kit (Vazyme Biotech, C115). Plasmids with FPR1 mutations were confirmed by DNA sequencing (GENEWIZ).
(§2) For functional studies, FPR1 and its mutants were expressed in HeLa cells as above. The cells were resuspended in HBSS buffer plus 5 mM HEPES, 0.1% BSA (w/v) and 0.5 mM 3-isobutyl-1-methylxanthine and seeded into 384-well plates. […] AG-14 was synthesized by Sungening Biotechnology (Shenzhen, China). […] Intracellular cAMP levels were measured with the LANCE Ultra cAMP kit (PerkinElmer, TRF0263) following the manufacturer’s instructions. […] Intracellular cAMP levels were calculated according to the TR-FRET signals of the samples and cAMP standards.
(§3) The data were analyzed with Prism 6.0 (GraphPad, San Diego, CA). […] For cell surface expression, data points were presented as the percentages (mean ± SEM) of the flow cytometry fluorescence signals of WT FPR1. […]

The target in assay [2] is T2, FPR1 WT (Homo sapiens, UniProt P21462).
T2 construct: expressed in transfected cells; host or cells: HeLa cells, transient, pcDNA3.1(+)
T2 sequence (P21462 1-350): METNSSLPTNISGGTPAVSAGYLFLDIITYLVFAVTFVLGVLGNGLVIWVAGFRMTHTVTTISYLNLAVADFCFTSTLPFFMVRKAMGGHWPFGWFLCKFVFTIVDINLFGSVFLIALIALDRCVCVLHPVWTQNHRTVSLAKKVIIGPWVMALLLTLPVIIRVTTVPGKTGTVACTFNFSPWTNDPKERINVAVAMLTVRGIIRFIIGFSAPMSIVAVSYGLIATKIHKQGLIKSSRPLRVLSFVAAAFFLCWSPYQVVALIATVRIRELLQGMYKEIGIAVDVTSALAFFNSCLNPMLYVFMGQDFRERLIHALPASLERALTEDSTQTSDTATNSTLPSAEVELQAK
The assay can be described thus: cAMP inhibition assay, WT FPR1. The format is cell-based.
Source text: as §1, §2, §3

The target in assay [3] is T3, FPR1 R205A (Homo sapiens, UniProt P21462, R205A).
T3 construct: expressed in transfected cells; host or cells: HeLa cells, transient, pcDNA3.1(+)
T3 sequence (P21462 1-350 R205A): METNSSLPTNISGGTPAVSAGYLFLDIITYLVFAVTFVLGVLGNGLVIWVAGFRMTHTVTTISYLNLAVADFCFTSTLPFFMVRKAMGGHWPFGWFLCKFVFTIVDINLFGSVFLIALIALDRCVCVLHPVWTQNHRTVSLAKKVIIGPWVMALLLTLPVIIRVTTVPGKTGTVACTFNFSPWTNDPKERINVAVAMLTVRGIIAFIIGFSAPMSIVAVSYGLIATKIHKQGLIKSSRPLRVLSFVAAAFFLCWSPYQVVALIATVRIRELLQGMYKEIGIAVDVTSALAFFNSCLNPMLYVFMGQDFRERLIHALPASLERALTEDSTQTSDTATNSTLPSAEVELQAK
The assay can be described thus: cAMP inhibition assay, FPR1 R205A. Set-up: key to cAMP response, source data of Fig. 5c: % of maximal cAMP level for each construct. Particulars: for cAMP response, source data of Fig. 5c: FPR1 R205A, single replicate readings. The class given is cell-based.
Source text: as §1
as §2, with “China). Different concentrations of the ligands were prepared plus a fixed dose of forskolin with the buffer above.” for “China).”
(§4) The data were analyzed with Prism 6.0 (GraphPad, San Diego, CA). For dose-response analysis, the curves were plotted with the log[agonist] vs. response equation (three parameters) in the software. Data points were presented as the percentages (mean ± SEM) of the maximal cAMP level for each construct, from at least three independent experiments, as indicated in figure legends. The pEC50 values were the negative logarithm of the EC50 values, which were obtained from the dose-response curves. For cell surface expression, data points were presented as the percentages (mean ± SEM) of the flow cytometry fluorescence signals of WT FPR1. For statistical comparison, a p-value of 0.05 or lower is considered statistically significant.

The target in assay [4] is T4, WT FPR1 expressed in HeLa cells (human, UniProt P21462 1-350).
T4 sequence (looked up): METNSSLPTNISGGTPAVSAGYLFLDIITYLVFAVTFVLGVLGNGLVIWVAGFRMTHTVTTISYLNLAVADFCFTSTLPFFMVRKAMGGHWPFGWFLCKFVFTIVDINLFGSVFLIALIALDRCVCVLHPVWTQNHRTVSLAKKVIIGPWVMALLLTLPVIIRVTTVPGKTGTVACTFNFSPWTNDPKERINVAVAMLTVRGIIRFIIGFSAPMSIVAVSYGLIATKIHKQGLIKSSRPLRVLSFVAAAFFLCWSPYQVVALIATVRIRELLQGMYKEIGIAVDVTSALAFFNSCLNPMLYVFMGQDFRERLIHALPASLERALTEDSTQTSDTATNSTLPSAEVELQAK

Assay [5] has as its target T5, FPR1 F291A (Homo sapiens, UniProt P21462, F291A).
T5 construct: expressed in transfected cells; host or cells: HeLa cells, transient, pcDNA3.1(+)
T5 sequence (P21462 1-350 F291A): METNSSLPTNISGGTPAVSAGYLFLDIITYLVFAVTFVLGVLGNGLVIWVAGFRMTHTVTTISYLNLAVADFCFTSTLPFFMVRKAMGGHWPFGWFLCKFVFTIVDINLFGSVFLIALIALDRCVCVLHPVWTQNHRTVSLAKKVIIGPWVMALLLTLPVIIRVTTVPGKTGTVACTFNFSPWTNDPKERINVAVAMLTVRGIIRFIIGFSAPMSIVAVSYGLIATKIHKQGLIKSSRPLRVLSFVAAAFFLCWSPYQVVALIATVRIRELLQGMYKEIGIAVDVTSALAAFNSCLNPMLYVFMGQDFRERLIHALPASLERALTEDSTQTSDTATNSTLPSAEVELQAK
The assay can be described thus: cAMP inhibition assay, FPR1 F291A. The format is cell-based. The following applies: FPR1 F291A, single replicate readings.
Source text: as §1
as §2, with “China). Different concentrations of the ligands were prepared plus a fixed dose of forskolin with the buffer above.” for “China).”
as §4

The target in assay [6] is T6, FPR1 R84A (Homo sapiens, UniProt P21462, R84A).
T6 construct: expressed in transfected cells; host or cells: HeLa cells, transient, pcDNA3.1(+)
T6 sequence (P21462 1-350 R84A): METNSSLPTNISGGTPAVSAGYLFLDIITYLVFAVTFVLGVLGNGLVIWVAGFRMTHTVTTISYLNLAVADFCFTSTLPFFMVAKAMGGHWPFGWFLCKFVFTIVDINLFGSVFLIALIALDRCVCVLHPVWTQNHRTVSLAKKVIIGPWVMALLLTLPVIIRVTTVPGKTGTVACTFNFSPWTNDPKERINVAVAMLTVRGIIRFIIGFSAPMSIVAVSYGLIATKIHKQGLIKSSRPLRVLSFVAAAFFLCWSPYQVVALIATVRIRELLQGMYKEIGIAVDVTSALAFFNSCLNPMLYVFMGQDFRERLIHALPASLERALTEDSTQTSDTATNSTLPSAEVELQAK
The assay can be described thus: cAMP inhibition assay, FPR1 R84A. The class given is cell-based. Set-up: key to cAMP response, source data of Fig. 5c: % of maximal cAMP level for each construct.
Source text: as §1
as §2, with “China). Different concentrations of the ligands were prepared plus a fixed dose of forskolin with the buffer above.” for “China).”
as §4

Assay [7] has as its target T4, WT FPR1 expressed in HeLa cells. The assay can be described thus: cell-based or functional assay.
In assay [8] the target is T7, FPR1 R201A (human, UniProt P21462 1-350, R201A).
T7 sequence (looked up): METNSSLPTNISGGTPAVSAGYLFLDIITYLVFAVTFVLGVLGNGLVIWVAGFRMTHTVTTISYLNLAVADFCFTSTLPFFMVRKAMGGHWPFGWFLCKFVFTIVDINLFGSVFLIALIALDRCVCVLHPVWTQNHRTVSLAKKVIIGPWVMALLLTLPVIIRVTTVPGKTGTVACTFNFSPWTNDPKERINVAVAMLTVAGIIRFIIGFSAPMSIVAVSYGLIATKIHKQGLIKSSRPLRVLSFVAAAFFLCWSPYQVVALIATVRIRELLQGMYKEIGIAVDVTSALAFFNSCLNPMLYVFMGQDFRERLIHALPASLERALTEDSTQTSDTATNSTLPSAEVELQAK
The assay can be described thus: cell-based or functional assay.

The target in assay [9] is T8, FPR1 R205A (human, UniProt P21462 1-350, R205A).
T8 sequence (looked up): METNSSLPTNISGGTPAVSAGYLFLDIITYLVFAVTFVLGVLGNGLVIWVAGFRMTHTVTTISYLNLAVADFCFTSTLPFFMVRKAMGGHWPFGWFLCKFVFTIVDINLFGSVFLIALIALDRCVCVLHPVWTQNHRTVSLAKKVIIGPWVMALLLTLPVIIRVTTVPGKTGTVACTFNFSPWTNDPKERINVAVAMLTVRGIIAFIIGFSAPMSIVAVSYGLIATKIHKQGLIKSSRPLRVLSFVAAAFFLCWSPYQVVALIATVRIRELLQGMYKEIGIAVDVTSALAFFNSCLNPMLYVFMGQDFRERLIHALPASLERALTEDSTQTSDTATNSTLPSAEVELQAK
The assay can be described thus: cell-based or functional assay.

Broadly, the EC50 is the concentration that produces a half-maximal response.

Where “and” joins values, the source holds several entries; their conditions need not be identical. Equal entries are not always repeated. Where two headings read alike, the source gives them in different places. Where a SMILES comes first, the peptide text is derived from it. Where no end group is shown, it is not given here. The star is where a group is joined. For = O=C*

Turning to `CC[C@H](C)[C@H](NC(=O)[C@H](CCSC)NC=O)C(=O)N[C@@H](Cc1ccccc1)C(=O)N[C@@H](CC(C)C)C(=O)O` [fMIFL, fMet-Ile-Phe-Leu] (For-MIFL-OH), the 50% effective concentration (EC50) was 6.31 nM in assay [1], 0.0631 nM in assay [2] and 2.51 nM in assay [3].
WKYMVm (peptide): the pEC50 of inhibition of forskolin-elevated cAMP, transfected HeLa cells in [4] was determined as 8.4.
For the molecule `COc1cc(C=NNC(=O)c2ccc3c(c2)OCO3)ccc1OCc1ccccc1` [Fig. 5c], the “cAMP response, source data of Fig. 5c” value in [5] (Log[M] -4.3) is 33.9 and 34.1 and 26.7 and 28.4 and 24.2 and 31.1; in assay [5] (Log[M] -5.0), 45.9 and 38.0 and 28.1 and 39.1 and 42.3 and 29.9; in [5] (Log[M] -5.7) it was 66.9 and 58.1 and 74.7 and 72.6; in assay [3] (Log[M] -4.3), 31.8 and 48.0 and 38.0 and 26.4 and 16.2 and 78.8; in [3] (Log[M] -5.0), 58.1 and 43.9 and 27.8 and 37.0 and 34.2 and 45.7; in assay [3] (Log[M] -5.7), 35.5 and 68.3 and 63.8 and 45.2 and 48.0 and 85.4. The “cAMP response, source data of Fig. 5c” value was 69.2 and 71.8 and 39.5 and 113.9 and 150.2 and 118.4 in [3] (Log[M] -6.4); 78.9 and 109.8 and 60.3 and 84.0 and 71.2 and 109.6 in [3] (Log[M] -7.1); 116.3 and 101.9 and 108.0 and 144.2 and 102.7 and 124.3 in assay [3] (Log[M] -7.8); 91.9 and 89.9 and 58.5 and 89.3 and 105.1 and 67.8 in [3] (Log[M] -8.5); 37.2 and 21.4 and -4.8 and 34.9 and 32.8 and 41.9 in [6] (Log[M] -4.3, single replicate readings); 14.6 and -24.6 and 16.2 and 33.5 and 20.2 and 31.4 in assay [6] (Log[M] -5.0, single replicate readings). Moreover, the “cAMP response, source data of Fig. 5c” value in assay [6] (Log[M] -5.7, single replicate readings) was 49.5 and 79.5 and 66.2 and 55.1 and 52.2 and 52.7; in [6] (Log[M] -6.4, single replicate readings), 79.9 and 58.8 and 61.6 and 91.8 and 112.7 and 81.8; in assay [6] (Log[M] -7.1, single replicate readings), 135.9 and 91.7 and 83.9 and 115.6 and 133.7 and 94.7; in [6] (Log[M] -7.8, single replicate readings) it was 106.7 and 82.2 and 108.6 and 111.9 and 96.0 and 84.6; in [6] (Log[M] -8.5, single replicate readings), 91.1 and 94.4 and 114.8 and 80.2 and 111.9 and 117.6.
Turning to For-MIFL [fMet-Ile-Phe-Leu (fMIFL)], the figures for the “pEC50 of inhibition of forskolin-elevated cAMP, transfected HeLa cells” value in assay [7], in [8] and in assay [9] were 10.2, 8.2 and 8.6, respectively.
